The record followed here is patent publication US20250268903A1, “RXFP1 AGONISTS” (BRISTOL-MYERS SQUIBB COMPANY, priority 2021, published 2025).

The target of this experiment is T1, human RXFP1 (Homo sapiens, UniProt Q9HBX9).
T1 construct: expressed in transfected cells
T1 sequence (Q9HBX9 1-757): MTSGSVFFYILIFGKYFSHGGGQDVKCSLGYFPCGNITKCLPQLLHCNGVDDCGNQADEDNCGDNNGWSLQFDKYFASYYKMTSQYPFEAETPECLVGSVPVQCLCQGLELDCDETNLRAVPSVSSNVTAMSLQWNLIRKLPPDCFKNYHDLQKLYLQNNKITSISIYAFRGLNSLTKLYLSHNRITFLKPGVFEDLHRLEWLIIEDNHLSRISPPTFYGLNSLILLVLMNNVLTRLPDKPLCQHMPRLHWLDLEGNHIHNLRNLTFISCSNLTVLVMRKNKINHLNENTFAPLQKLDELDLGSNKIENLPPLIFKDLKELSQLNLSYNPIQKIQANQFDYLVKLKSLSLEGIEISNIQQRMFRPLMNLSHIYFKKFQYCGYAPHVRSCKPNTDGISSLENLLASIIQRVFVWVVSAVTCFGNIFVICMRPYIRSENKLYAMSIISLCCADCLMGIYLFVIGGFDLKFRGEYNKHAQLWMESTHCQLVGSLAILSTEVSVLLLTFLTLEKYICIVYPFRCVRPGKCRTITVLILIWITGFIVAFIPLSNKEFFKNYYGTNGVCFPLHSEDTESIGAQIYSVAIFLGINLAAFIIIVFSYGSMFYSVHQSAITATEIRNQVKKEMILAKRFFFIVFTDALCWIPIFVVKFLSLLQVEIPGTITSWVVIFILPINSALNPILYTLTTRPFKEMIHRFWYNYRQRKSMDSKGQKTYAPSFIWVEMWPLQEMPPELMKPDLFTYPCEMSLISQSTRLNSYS
As to the kind of experiment: hRXFP1 HEK293 cAMP assay (HTRF). Type of experiment: cell-based. The note with it: HEK293 cells stably expressing human RXFP1, 30 min at room temperature. The method, then:
RXFP1 Cyclic Adenosine Monophosphate (cAMP) Assays. […] Cells were dissociated and suspended in assay buffer. The assay buffer was HBSS buffer (with calcium and magnesium) containing 20 mM HEPES, 0.05% BSA, and 0.5 mM IBMX. Cells (3000 cells per well, except 1500 cell per well for HEK293 cells stably expressing human RXFP1) were added to 384-well Proxiplates (Perkin-Elmer). Cells were immediately treated with test compounds in DMSO (2% final) at final concentrations in the range of 0.010 nM to 50 μM. Cells were incubated for 30 min at room temperature. The level of intracellular cAMP was determined using the HTRF HiRange cAMP assay reagent kit (Cisbio) according to manufacturer's instructions. Solutions of cryptate conjugated anti-cAMP and d2 fluorophore-labelled cAMP were made in a supplied lysis buffer separately. Upon completion of the reaction, the cells were lysed with equal volume of the d2-cAMP solution and anti-cAMP solution. […] The potency and activity of a compound to […] cAMP production was then determined by fitting to a 4-parametric logistic equation from a plot of cAMP level versus compound concentrations.
In general terms: cAMP levels reflect the balance of adenylyl cyclase and phosphodiesterase activity.
For `COc1ccc(CCCCO)cc1C(=O)N[C@@H]1C2CCC(/C2=C/C2CCC2)[C@@H]1C(=O)Nc1ccc(F)c(C(F)(F)F)c1` (stereo partly drawn) [Example 96, (2S,3R,7Z)-7-(cyclobutylmethyli-dene)-N-[4-fluoro-3-(trifluoromethyl)phe-nyl]-3-[5-(4-hydroxybutyl)-2-methoxybenzamido] bicyclo[2.2.1]heptane-2-carboxamide], the response was half-maximal at 46 nM (EC50).
The value for `COc1ccc(COC2=NOC3COCC23)cc1C(=O)N[C@H]1[C@@H](C(=O)Nc2ccc(F)c(C(F)(F)F)c2)[C@H]2CC[C@@H]1/C2=C\C1CC1` (stereo partly drawn) [Example 300, (1R,2S,3R,4R,7Z)-3-[5-({3aH,4H,6H,6aH-furo[3,4-d][1,2]oxazol-3-yloxy}methyl)-2-methoxybenzamido]-7-(cyclopropylmethylidene)-N-[4-fluoro-3-(trifluoromethyl)phenyl]bicyclo[2.2.1] heptane-2-carboxamide] was 206 nM.
The value for `COc1ccc(C2CC(C(=O)N3CCC(O)CC3)C2)cc1C(=O)N[C@H]1[C@@H](C(=O)Nc2ccc(F)c(C(F)(F)F)c2)[C@H]2CC[C@@H]1/C2=C\C1CC1` (stereo partly shown) [Example 327] was 26.1 nM.
The value for `COc1ccc(S(C)(=O)=O)cc1C(=O)N[C@@H]1C2CCC(C2=C(C)C)[C@@H]1C(=O)Nc1ccc(F)c(C(F)(F)F)c1` (stereo partly drawn) [Example 208, (2S,3R)-N-[4-fluoro-3-(trifluoromethyl)phenyl]-3-(5-methanesulfonyl-2-methoxybenzamido)-7-(propan-2-ylidene)bicyclo[2.2.1] heptane-2-carboxamide] was 2600 nM.
Take `COC(=O)C1CC2(C1)CC(c1ccc(OC)c(C(=O)N[C@@H]3C4CCC(/C4=C/C(F)(F)F)[C@@H]3C(=O)Nc3ccc(F)c(C(F)(F)F)c3)c1)C2` (single isomer, unassigned) [Example 150]: the EC50 – broadly, the concentration at which the effect is half-maximal – was 715 nM.
Compound `COc1ccc(/C=C/C(N)=O)cc1C(=O)N[C@@H]1C2CCC(/C2=C/C(F)(F)F)[C@@H]1C(=O)Nc1ccc(F)c(C(F)(F)F)c1` (stereo partly drawn) [Example 132, (2S,3R,7Z)-3-{5-[(1E)-2-carbamoyleth-1-en-1-yl]-2-methoxybenzamido}-N-[4-fluoro-3-(trifluoromethyl)phe-nyl]-7-(2,2,2-trifluoroethylidene)bi-cyclo[2.2.1]heptane-2-carboxamide] had an EC50 of 380 nM.
In the case of `COc1ccc(CCC(=O)N2CC[C@H](O)C2)cc1C(=O)N[C@@H]1C2CCC(/C2=C/C(F)(F)F)[C@@H]1C(=O)Nc1ccc(F)c(C(F)(F)F)c1` (stereo partly drawn) [Example 138, (2S,3R,7Z)-N-[4-fluoro-3-(trifluoromethyl)phe-nyl]-3-(5-{3-[(3S)-3-hydroxypyrrolidin-1-yl]-3-oxopropyl}-2-methoxybenzamido)-7-(2,2,2-trifluoroethylidene)bi-cyclo[2.2.1]heptane-2-carboxamide] it was 428 nM; in that of `COc1ccc(CCC(O)C(F)(F)F)cc1C(=O)N[C@@H]1C2CCC(/C2=C/C(F)(F)F)[C@@H]1C(=O)Nc1ccc(F)c(C(F)(F)F)c1` (stereo partly drawn) [Example 100, (2S,3R,7Z)-N-[4-fluoro-3-(trifluoromethyl)phe-nyl]-3-[2-methoxy-5-(4,4,4-trifluoro-3-hydroxybutyl)benza-mido]-7-(2,2,2-trifluoroethylidene)bi-cyclo[2.2.1]heptane-2-carboxamide], 372 nM.
In the case of `COc1ccc(CCC(C)(C)O)cc1C(=O)N[C@H]1[C@@H](C(=O)NCC(C)(C)C)[C@H]2CC[C@@H]1/C2=C\C1CC1` [Example 271, (1R,2S,3R,4R,7Z)-7-(cyclopropylmethyl-idene)-N-(2,2-dimethylpropyl)-3-[5-(3-hydroxy-3-methylbutyl)-2-methoxybenzamido] bicyclo[2.2.1]heptane-2-carboxamide] it was 264 nM.
Compound `COc1ccc(/C=C/C(=O)N2CCCC2)cc1C(=O)N[C@H]1[C@@H](C(=O)Nc2ccc(F)c(C(F)(F)F)c2)[C@H]2CC[C@@H]1/C2=C\C(F)(F)F` [Example 303, (1R,2S,3R,4R,7Z)-N-[4-fluoro-3-(trifluoromethyl)phenyl]-3-{2-methoxy-5-[(1E)-3-oxo-3-(pyrrolidin-1-yl)prop-1-en-1-yl]benzamido}-7-(2,2,2-trifluoroethylidene) bicyclo[2.2.1] heptane-2-carboxamide] returned a concentration giving a half-maximal response (EC50) of 77.9 nM.
Compound `COc1ccc(C(=O)N2CCS(=O)(=O)CC2)cc1C(=O)N[C@H]1[C@@H](C(=O)Nc2ccc(F)c(C(F)(F)F)c2)[C@H]2CC[C@@H]1/C2=C\C1CC1` [Example 242, (1R,2S,3R,4R,7Z)-7-(cyclopropyl-methylidene)-3-[5-(1,1-dioxo-1λ.^6-thiomorpholine-4-carbonyl)-2-methoxybenzamido]-N-[4-fluoro-3-(trifluoromethyl)phenyl]bicyclo [2.2.1] heptane-2-carboxamide] displayed an EC50 of 261 nM.
In the case of “(7Z)-7-(4,4- dimethylpentylidene)- N-[4-fluoro-3- (trifluoromethyl)phe- nyl]-3-[5-(3- hydroxypropyl)-2- methoxybenzamido] bicyclo[2.2.1]heptane- 2-carboxamide [Example 164]” it was 67 nM; in that of `COc1ccc(CCC(=O)NCC(F)(F)F)cc1C(=O)NC1C2CCC(/C2=C/C(F)(F)F)[C@@H]1C(=O)Nc1ccc(F)c(C(F)(F)F)c1` (stereo partly drawn) [Example 141, (2S,3R,7Z)-N-[4-fluoro-3-(trifluoromethyl)phe-nyl]-3-(2-methoxy-5-{2-[(2,2,2-trifluoroethyl)carba-moyl]ethyl}benzami-do)-7-(2,2,2-trifluoroethylidene)bi-cyclo[2.2.1]heptane-2-carboxamide], 829 nM.
In the case of `COc1ccc(S(=O)(=O)N2CCN(CCCO)CC2)cc1C(=O)N[C@H]1[C@@H](C(=O)Nc2ccc(F)c(C(F)(F)F)c2)[C@H]2CC[C@@H]1/C2=C\C(F)(F)F` [Example 211, (1R,2S,3R,4R,7Z)-N-[4-fluoro-3 (trifluoromethyl)phenyl]-3-(5-{[4-(3-hydroxypropyl)piperazin-1-yl]sulfonyl}-2-methoxybenzamido)-7-(2,2,2-trifluoroethylidene) bicyclo[2.2.1] heptane-2-carboxamide] it was 551 nM.
The value for `COc1ccc(C2=CC(=O)CCC2)cc1C(=O)N[C@@H]1C2CCC(/C2=C/C(F)(F)F)[C@@H]1C(=O)Nc1ccc(F)c(C(F)(F)F)c1` (stereo partly shown) [Example 34] was 470 nM; that for `COc1cc(CN2C(=O)CNC2=O)ccc1C(=O)N[C@@H]1C2CCC(/C2=C/C2CC2)[C@@H]1C(=O)Nc1ccc(F)c(C(F)(F)F)c1` (stereo partly drawn) [Example 25, (2S,3R,7Z)-7-(cyclopropylmethyli-dene)-3-{4-[(2,5-dioxoimidazolidin-1-yl)methyl]-2-methoxybenzamido}-N-[4-fluoro-3-(trifluoromethyl)phe-nyl]bicyclo[2.2.1] heptane-2-carboxamide] was 2040 nM; that for `COc1ccc(CCc2ccc(F)cc2)cc1C(=O)NC1C2CCC(/C2=C/C(F)(F)F)[C@@H]1C(=O)Nc1ccc(F)c(C(F)(F)F)c1` (stereo partly shown) [Example 179, (7Z)-N-[4-fluoro-3-(trifluoromethyl)phe-nyl]-3-{5-[2-(4-fluorophenyl)ethyl]-2-methoxybenzamido}-7-(2,2,2-trifluoroethylidene)bi-cyclo[2.2.1]heptane-2-carboxamide] was 267 nM.
`COc1ccc(C#CCCCOC(=O)NC2CCC2)cc1C(=O)N[C@@H]1C2CCC(/C2=C/C(F)(F)F)[C@@H]1C(=O)Nc1ccc(F)c(C(F)(F)F)c1` (stereo partly drawn) [Example 80, 5-(3-{[(2R,3S,7Z)-3-{[4-fluoro-3-(trifluoromethyl)phe-nyl]carbamoyl}-7-(2,2,2-trifluoroethylidene)bi-cyclo[2.2.1]heptan-2-yl]carbamoyl}-4-methoxyphenyl)pent-4-yn-1-yl N-cyclobutylcarbamate] showed an EC50 of 303 nM.
Turning to `COc1ccc(/C=C/C(=O)NCC(F)(F)F)cc1C(=O)NC1C2CCC(/C2=C/C(F)(F)F)[C@@H]1C(=O)Nc1ccc(F)c(C(F)(F)F)c1` (stereo partly drawn) [Example 136, (2S,3R,7Z)-N-[4-fluoro-3-(trifluoromethyl)phe-nyl]-3-{2-methoxy-5-[(1E)-2-[(2,2,2-trifluoroethyl)carba-moyl]eth-1-en-1-yl]benzamido}-7-(2,2,2-trifluoroethylidene)bi-cyclo[2.2.1]heptane-2-carboxamide], it took 776 nM to reach a half-maximal effect (EC50).
